Tests used:
in vivo [1] = conditions: Sprague-Dawley, rat, brain/plasma, po, 10 mg/kg
in vivo [2] = conditions: Sprague-Dawley, rat, po, 10 mg/kg
in vivo [3] = conditions: Sprague-Dawley, rat, po, 10 mg/kg; remark: listed apart in the source

`CCc1cccc2c1C[C@@H]1CNCCN1C2=O` showed a Kp (in vivo [1]) of 3.9, an AUC(0-t) at 4 h (in vivo [2]) of 9.64 µM·h and a Cmax (in vivo [3]) of 3.62 µM.

— ChEMBL document CHEMBL2396562, “Synthesis and SAR of potent and selective tetrahydropyrazinoisoquinolinone 5-HT(2C) receptor agonists” (Bioorg Med Chem Lett, 2013)
